Here are results for 1 compound from patent publication US20100292186A1, “Pharmaceutical Composition for Treatment or Prevention of Liver Cancer” (National University Corporation Nagoya University, priority 2006, published 2010).

Each structure is given as a SMILES string.

The subject of data set [1] is hepatocellular cancer. The note with it: administration after treatment of hepatocellular cancer; cited from earlier work.
Data set [2] relates to human hepatocellular cancer cell lines (Hep-3B, Hep-G2, Huh-7 and the like). The note with it: literature; cited from earlier work.
For data set [3] the following is noted: cited from earlier work.
Data set [4] concerns human hepatocellular cancer cell line (Hep-3B, Hep-G2, Huh-7 and Alexander). Put plainly: MTT assay, growth inhibition of hepatocellular cancer cell lines. Format: cell-based. The method, then: Four species of human hepatocellular cancer cell line (Hep-3B. Hep-G2, Huh-7 and Alexander) were cultured under humidified atmosphere of 95% air and 5% carbon dioxide, in a Dulbecco Modified Eagle culture medium (DMEM: SIGMA CHEMICAL Co., St. Louis USA) supplemented with 10% fetal bovine serum (FBS), 100 U/ml penicillin G sulphate and 100 μg/ml streptomycin sulphate.
For lecithin (other name: phosphatidylcholine (hereinafter, referred to as simply “PC”), soybean lecithin with a purity of approximately 96.5% was used, and menatetrenone and Kaytwo N (Kaytwo N: registered trade mark; manufactured by Eisai Co. Ltd.) were provided by Eisai Co. Ltd. For the study, cells (Hep-G2: 1×10^4; others: 1×10^3) in a 96-well microtiter plate were cultured one day prior to beginning the experiments. In the MTT assay method, cells in 96-well microtiter were cultured several days (2 to 4 days) in the presence of PC (1×10^−8 to 1×10^−4M) and menatetrenone (1×10^−7 to 1×10^−4 M) or Kaytwo N (registered trade mark; manufactured by Eisai Co. Ltd.) (regarding menatetrenone: […] to 1×10^−4M). […] The survival rate was analyzed by the MTT assay method using the Tetra Color One Kit. […]
Significant differences were evaluated by the Mann-Whitney U test according to StatView 5.0 (Abacus Concepts, Berkley, Calif.). […]
(In general: Formazan colour is commonly taken as a measure of viable cells.)

`CC(C)=CCC/C(C)=C/CC/C(C)=C/CC/C(C)=C/CC1=C(C)C(=O)c2ccccc2C1=O` [menatetrenone, 2-methyl-3-tetraprenyl-1,4-naphthoquinone]: in data set [1], the “occurrence of PVI (portal venous invasion)” value is “could be suppressed” and the “prognosis / recurrence of hepatocellular cancer” value is recorded as “prognosis could be improved by suppressing the recurrence of hepatocellular cancer”. Moreover, the “growth of human hepatocellular cancer cell lines” value in data set [2] is recorded as “inhibitory effect”. The solubility in water entry in data set [3] is “almost insoluble in water”. Also, the survival rate entry in data set [4] (MTT assay, PC 1×10^−8 to 1×10^−4 M, menatetrenone 1×10^−7 to 1×10^−4 M, culture 2 to 4 days, FIGS. 1A-1C) is recorded as “survival rate decreased in the presence menatetrenone depending on the quantity added”. Moreover, the “multiplication of human hepatocellular cancer cell lines” value in data set [4] (each substance alone) was “demonstrated an inhibitory effect”.
